Measured values published in patent US10787444B2, “Compounds for the modulation of myc activity” (Syros Pharmaceuticals, Inc., priority 2015, dated 2020).
Like-named read-outs stand apart in the source and are kept apart here.

Experiments:
[1] = target: T1, c-Myc/Max/Ebox DNA (Homo sapiens, UniProt P01106); assay: c-Myc/Max/Ebox DNA AlphaScreen Assay; type: binding; settings: calculated IC50 class
T1 construct: his6 (cleaved yes)
How it was run: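 Compounds were preincubated with free c-Myc (20 nM), biotinylated single-Ebox DNA (10 nM) and Ni acceptor beads before his6-Max (5 nM) and streptavidin donor beads were added. Buffer was 50 mM HEPES pH 8.0, 150 mM NaCl, BSA, Tween20, glycogen and DTT, with DMSO ≤2%. After 2 h incubation, AlphaScreen signal was read at 680 nm excitation and 520–620 nm emission.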

[2] = tested on: human small lung cancer cell line H2171; assay: Cell Viability Assay (ATPlite); type: cell-based; settings: H2171 cells, three days, ATPlite, calculated IC50 class, read-out: H2171 Activity
How it was run: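 Viability readout was ATPlite luminescence, taken after 3 days' incubation at 37° C. Human SCLC H2171 cells (20,000 cells/mL) received compound right after plating, as a 10-point dose response.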

[3] = Homo sapiens, NCI-H2171, 72 h, Table 2, compounds of FIG. 1
[4] = Homo sapiens, NCI-H2171, 72 h, Table 3, compounds of FIG. 2

T1 sequence (P01106 whole entry): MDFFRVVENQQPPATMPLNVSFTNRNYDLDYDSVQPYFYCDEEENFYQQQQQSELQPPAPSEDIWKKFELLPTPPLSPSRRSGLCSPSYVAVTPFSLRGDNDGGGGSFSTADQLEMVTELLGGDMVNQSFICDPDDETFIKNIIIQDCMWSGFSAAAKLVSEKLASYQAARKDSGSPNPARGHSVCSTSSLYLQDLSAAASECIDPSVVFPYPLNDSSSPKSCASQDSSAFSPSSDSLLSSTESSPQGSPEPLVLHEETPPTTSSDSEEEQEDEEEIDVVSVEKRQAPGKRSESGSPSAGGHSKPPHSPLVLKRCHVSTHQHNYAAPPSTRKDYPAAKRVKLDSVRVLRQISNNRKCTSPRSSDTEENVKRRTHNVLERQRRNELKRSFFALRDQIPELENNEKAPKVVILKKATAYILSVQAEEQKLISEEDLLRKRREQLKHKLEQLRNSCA

Row | Structure (SMILES) | IC50 ([1]; Table 2, compounds of FIG. 1) | IC50 [2, 3] | also measured
1 | CCC1Cc2c(sc(NC(=O)CCNCCOC)c2-c2nc3ccccc3s2)C(CC)N1 (single isomer, unassigned) [Compound 537, N-(3-(Benzo[d]thiazol-2-yl)-5,7-diethyl-4,5,6,7-tetrahydrothieno[2,3-c]pyridin-2-yl)-3-((2-methoxyethyl)amino)propanamide] | > 10000 nM | – | IC50 ([2]; Table 2, compounds of FIG. 1): < 300 nM
2 | O=C(CCNCCO)Nc1sc2c(c1-c1nc3ccccc3s1)CCNC2 [Compound 310, N-(3-(Benzo[d]thiazol-2-yl)-4,5,6,7-tetrahydrothieno[2,3-c]pyridin-2-yl)-3-((2-hydroxyethyl)amino)propanamide] | < 300 nM | < 300 nM | –
3 | CC(=O)Nc1sc2c(c1-c1nc3ccccc3s1)C[C@@H](C)N[C@H]2C [Compound 218, N-((5R,7S)-3-(benzo[d]thiazol-2-yl)-5,7-dimethyl-4,5,6,7-tetrahydrothieno[2,3-c]pyridin-2-yl)acetamide] | – | – | IC50 ([1]; Table 3, compounds of FIG. 2): 1000 to 10000 nM; IC50 ([2]; Table 3, compounds of FIG. 2): < 300 nM
4 | CC[C@H](C)NCCC(=O)Nc1sc2c(c1-c1nc3ccccc3s1)CCN(C1CC1)C2 [Compound 596, (S)—N-(3-(benzo[d]thiazol-2-yl)-6-cyclopropyl-4,5,6,7-tetrahydrothieno[2,3-c]pyridin-2-yl)-3-(sec-butylamino)propanamide] | > 10000 nM | 300 to 1000 nM | –
5 | COCCNCCC(=O)Nc1sc2c(c1-c1nc3ccc(-c4cc(C)[nH]n4)cc3s1)CCNC2 [compound 355] | < 300 nM | < 300 nM | –
6 | C=Cc1ccc2sc(-c3c(NC(=O)CCNC(C)C)sc4c3CCNC4)nc2c1 [Compound 321, 3-(Isopropylamino)-N-(3-(5-vinylbenzo[d]thiazol-2-yl)-4,5,6,7-tetrahydrothieno[2,3-c]pyridin-2-yl)propanamide] | 300 to 1000 nM | < 300 nM | –
7 | CC(=O)Nc1sc2c(c1-c1nc3ccc(C)cc3s1)CCNC2 [Compound 224, N-(3-(6-methylbenzo[d]thiazol-2-yl)-4,5,6,7-tetrahydrothieno[2,3-c]pyridin-2-yl)acetamide] | – | – | IC50 ([1]; Table 3, compounds of FIG. 2): 300 to 1000 nM; IC50 [2, 4]: > 10000 nM
8 | COCCNCCC(=O)Nc1sc2c(c1-c1nc3cc(-n4cnc(C)c4)ccc3s1)CCNC2 [compound 180] | < 300 nM | < 300 nM | –
9 | CC(C)NCCC(=O)Nc1sc2c(c1-c1nc3cc(C(=O)O)ccc3s1)CCNC2 [Compound 320, 2-(2-(3-(Isopropylamino)propanamido)-4,5,6,7-tetrahydrothieno[2,3-c]pyridin-3-yl)benzo[d]thiazole-5-carboxylic acid] | 300 to 1000 nM | < 300 nM | –
10 | COCCNCCC(=O)Nc1sc2c(c1-c1nc3cc(F)ccc3s1)CCNC2 [Compound 189, N-(3-(5-fluorobenzo[d]thiazol-2-yl)-4,5,6,7-tetrahydrothieno[2,3-c]pyridin-2-yl)-3-((2-methoxyethyl)amino)propanamide] | < 300 nM | < 300 nM | –
11 | CCC(C)N(CCC(=O)Nc1sc2c(c1-c1nc3ccccc3s1)CCN(CCNC(=O)C(F)(F)F)C2)C(C)=O (stereo not drawn) [Compound 319, N-(3-(Benzo[d]thiazol-2-yl)-6-(2-(2,2,2-trifluoroacetamido)ethyl)-4,5,6,7-tetrahydrothieno[2,3-c]pyridin-2-yl)-3-(N-(sec-butyl)acetamido)propanamide] | > 10000 nM | 300 to 1000 nM | –
12 | COCCNCCC(=O)Nc1sc2c(c1-c1nc3cc(C4=CCNCC4)ccc3s1)CCNC2 [compound 497] | < 300 nM | < 300 nM | –
13 | CC(C)NCCC(=O)Nc1sc2c(c1-c1nc3ccccc3s1)CC(C)NC2C (single isomer, unassigned) [Compound 196, N-(3-(benzo[d]thiazol-2-yl)-5,7-dimethyl-4,5,6,7-tetrahydrothieno[2,3-c]pyridin-2-yl)-3-(isopropylamino)propanamide] | 300 to 1000 nM | < 300 nM | –
14 | CC(=O)Nc1sc2c(c1-c1nc3ccccc3s1)C(F)CNC2 (stereo not drawn) [Compound 217, N-(3-(benzo[d]thiazol-2-yl)-4-fluoro-4,5,6,7-tetrahydrothieno[2,3-c]pyridin-2-yl) acetamide] | – | – | IC50 ([1]; Table 3, compounds of FIG. 2): > 10000 nM; IC50 [2, 4]: < 300 nM
15 | CC(C)NCCC(=O)Nc1sc2c(c1-c1nc3ccccc3s1)CC(C)NC2C (single isomer, unassigned) [Compound 198, N-(3-(benzo[d]thiazol-2-yl)-5,7-dimethyl-4,5,6,7-tetrahydrothieno[2,3-c]pyridin-2-yl)-3-(isopropylamino)propanamide] | 1000 to 10000 nM | – | IC50 ([2]; Table 2, compounds of FIG. 1): < 300 nM
16 | CC(=O)Nc1sc2c(c1-c1nc3ccccc3s1)C[C@@H](C)N[C@H]2C (relative stereo) [Compound 206, N-(3-(benzo[d]thiazol-2-yl)-cis-5,7-dimethyl-4,5,6,7-tetrahydrothieno[2,3-c]pyridin-2-yl)acetamide] | – | – | IC50 ([1]; Table 3, compounds of FIG. 2): 1000 to 10000 nM; IC50 ([2]; Table 3, compounds of FIG. 2): 1000 to 10000 nM
17 | CC(C)NCCC(=O)Nc1sc2c(c1-c1nc3cc(N4CCOCC4)ccc3s1)CCNC2 [compound 302] | < 300 nM | < 300 nM | –

Row | Structure (SMILES) | IC50 ([1]; Table 2, compounds of FIG. 1) | IC50 [2, 3] | also measured
18 | CCC(C)NCCC(=O)Nc1sc2c(c1-c1nc3cc(-c4ccncc4)ccc3s1)CCNC2C [Compound 590, 3-(((S)-sec-butyl)amino)-N—((R)-7-methyl-3-(5-pyridin-4-yl)benzo[d]thiazol-2-yl)-4,5,6,7-tetrahydrothieno[2,3-c]pyridin-2-yl)propanamide] | < 300 nM | < 300 nM | –
19 | CC[C@@H](C)NCCC(=O)Nc1sc2c(c1-c1nc3cc(C(F)(F)F)ccc3s1)CCNC2 [Compound 179, (R)-3-(sec-butylamino)-N-(3-(5-(trifluoromethyl)benzo[d]thiazol-2-yl)-4,5,6,7-tetrahydrothieno[2,3-c]pyridin-2-yl)propanamide] | < 300 nM | < 300 nM | –
20 | COCCNCCC(=O)Nc1sc2c(c1-c1nc3cc(-c4ccnc(F)c4)ccc3s1)CCNC2 [compound 458] | < 300 nM | < 300 nM | –
21 | COCCNCCC(=O)Nc1sc2c(c1-c1nc3ccc(-c4ccnc(F)c4)cc3s1)CCNC2 [compound 456] | < 300 nM | < 300 nM | –
22 | O=C(O)CCOCCOCCOCCOCCOCCOCCNCCC(=O)Nc1sc2c(c1-c1nc3ccccc3s1)CCNC2 [Compound 623] | < 300 nM | < 300 nM | –
23 | COC(=O)c1ccc2sc(-c3c(NC(C)=O)sc4c3CCNC4)nc2c1 [Compound 229, Methyl 2-(2-acetamido-4,5,6,7-tetrahydrothieno[2,3-c]pyridin-3-yl)benzo[d]thiazole-5-carboxylate] | – | – | IC50 ([1]; Table 3, compounds of FIG. 2): 300 to 1000 nM; IC50 [2, 4]: < 300 nM
24 | CC[C@H](C)NCCC(=O)Nc1sc2c(c1-c1nc3cc(C(F)(F)F)ccc3s1)CC(C)NC2C (single isomer, unassigned) [Compound 585] | < 300 nM | – | IC50 ([2]; Table 2, compounds of FIG. 1): < 300 nM
25 | COCCNCCC(=O)Nc1sc2c(c1-c1nc3ccccc3s1)CC(C)NC2C (single isomer, unassigned) [Compound 508, N-(3-(Benzo[d]thiazol-2-yl)-5,7-dimethyl-4,5,6,7-tetrahydrothieno[2,3-c]pyridin-2-yl)-3-((2-methoxyethyl)amino)propanamide] | 1000 to 10000 nM | < 300 nM | –
26 | COCCNCCC(=O)Nc1sc2c(c1-c1nc3cc(-c4ccncc4)ccc3s1)CCNC2C (single isomer, unassigned) [Compound 569, 3-((2-Methoxyethyl)amino)-N-(7-methyl-3-(5-(pyridin-4-yl)benzo[d]thiazol-2-yl)-4,5,6,7-tetrahydrothieno[2,3-c]pyridin-2-yl)propanamide] | 1000 to 10000 nM | – | IC50 ([2]; Table 2, compounds of FIG. 1): 1000 to 10000 nM
27 | COCCNCCC(=O)Nc1sc2c(c1-c1nc3c(CO)cccc3s1)CCNC2 [compound 598] | < 300 nM | < 300 nM | –
28 | CC[C@H](C)NCCC(=O)Nc1sc2c(c1-c1nc3cc(-c4ccncc4)ccc3s1)CCNC2 [Compound 579, (S)-3-(sec-butylamino)-N-(3-(5-(pyridin-4-yl)benzo[d]thiazol-2-yl)-4,5,6,7-tetrahydrothieno[2,3-c]pyridin-2-yl)Propanamide] | < 300 nM | < 300 nM | –
29 | COCCNCCC(=O)Nc1sc2c(c1-c1nc3cc(-c4ccnc(NC(C)=O)c4)ccc3s1)CCNC2 [compound 342] | < 300 nM | < 300 nM | –
30 | CCC(C)NCCC(=O)Nc1sc2c(c1-c1nc3cc(C(F)(F)F)ccc3s1)CCNC2 (stereo not drawn) [Compound 125, 3-(sec-butylamino)-N-(3-(5-(trifluoromethyl)benzo[d]thiazol-2-yl)-4,5,6,7-tetrahydrothieno[2,3-c]pyridin-2-yl) propanamide] | 300 to 1000 nM | 300 to 1000 nM | –
31 | COCCNCCC(=O)Nc1sc2c(c1-c1nc3cc(F)ccc3s1)CC(C)NC2C (single isomer, unassigned) [Compound 546, N-(3-(5-Fluorobenzo[d]thiazol-2-yl)-5,7-dimethyl-4,5,6,7-tetrahydrothieno[2,3-c]pyridin-2-yl)-3-((2-methoxyethyl)amino)propanamide] | > 10000 nM | – | IC50 ([2]; Table 2, compounds of FIG. 1): < 300 nM
32 | COCCNCCC(=O)Nc1sc2c(c1-c1nc3cc(-c4cncc(OC)c4)ccc3s1)CCNC2 [compound 349] | < 300 nM | < 300 nM | –
33 | COCCNCCC(=O)Nc1sc2c(c1-c1nc3cc(-c4cccnc4)ccc3s1)CC(C)NC2C (single isomer, unassigned) [Compound 526, N-(5,7-Dimethyl-3-(5-(pyridin-3-yl)benzo[d]thiazol-2-yl)-4,5,6,7-tetrahydrothieno[2,3-c]pyridin-2-yl)-3-((2-methoxyethyl)amino)propanamide] | 1000 to 10000 nM | – | IC50 ([2]; Table 2, compounds of FIG. 1): 300 to 1000 nM
